Measured values reported in PubChem BioAssay (NCI).
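96-well plates; 48 h exposure; 5 concentrations. Endpoints by linear interpolation between flanking doses. Not reached: highest tested concentration assigned. TGI is the concentration that stops growth completely.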

Tests used:
Test in all cases: NCI tumour cell line growth inhibition, 48 h
SF-539 CNS = tested on: SF-539 CNS
OVCAR-5 ovarian = tested on: OVCAR-5 ovarian
UO-31 renal = tested on: UO-31 renal
M14 melanoma = tested on: M14 melanoma
HS 578T breast = tested on: HS 578T breast
HOP-62 NSCLC = tested on: HOP-62 NSCLC
ACHN renal = tested on: ACHN renal
HCT-116 colon = tested on: HCT-116 colon
SN12C renal = tested on: SN12C renal
SF-268 CNS = tested on: SF-268 CNS
U251 CNS = tested on: U251 CNS
HCC-2998 colon = tested on: HCC-2998 colon
HCT-15 colon = tested on: HCT-15 colon
SR leukemia = tested on: SR leukemia

Measured: TGI

CC(=O)NC1C(OCC(=O)NCCNc2ccc([N+](=O)[O-])c3[nH]c4ccccc4c(=O)c23)C(O)C(CO)OC1(C)OCc1ccccc1 (configuration not stated)
> 100 µM: SF-539 CNS | OVCAR-5 ovarian | UO-31 renal | M14 melanoma | HS 578T breast | HOP-62 NSCLC | ACHN renal | HCT-116 colon | SN12C renal | SF-268 CNS | U251 CNS | HCC-2998 colon | HCT-15 colon

O=C1c2ccccc2N2OC3(N4CCOCC4)CCCC3C12c1ccccc1 (configuration not stated)
> 100 µM: SF-539 CNS | UO-31 renal | M14 melanoma | SR leukemia | HOP-62 NSCLC | ACHN renal | HCT-116 colon | SN12C renal | SF-268 CNS | U251 CNS | HCC-2998 colon | HCT-15 colon

CC(=O)OC1COC(N2CCc3cc([N+](=O)[O-])ccc32)C(OC(C)=O)C1OC(C)=O (configuration not stated)
> 100 µM: SF-539 CNS | UO-31 renal | M14 melanoma | SR leukemia | HOP-62 NSCLC | ACHN renal | SF-268 CNS | U251 CNS | HCT-15 colon

O=C(c1ccc(Cl)cc1)N(C(=O)N1CCCCC1)c1ccccc1
> 100 µM: SF-539 CNS | OVCAR-5 ovarian | UO-31 renal | M14 melanoma | HS 578T breast | ACHN renal | HCT-116 colon | SN12C renal | SF-268 CNS | U251 CNS | HCT-15 colon

N#Cc1sc2nc3ccccc3n2c1N
> 100 µM: SF-539 CNS | OVCAR-5 ovarian | UO-31 renal | M14 melanoma | HS 578T breast | HOP-62 NSCLC | ACHN renal | HCT-116 colon | SF-268 CNS | U251 CNS | HCC-2998 colon | HCT-15 colon

Cc1cc(O)c(/C=N/C(N)=S)c(=O)o1
> 100 µM: SF-539 CNS | OVCAR-5 ovarian | UO-31 renal | M14 melanoma | HS 578T breast | HOP-62 NSCLC | ACHN renal | HCT-116 colon | SN12C renal | SF-268 CNS | U251 CNS | HCC-2998 colon | HCT-15 colon

C1CCC(N=C2N(C3CCCCC3)C(=NC3CCCCC3)N2C2CCCCC2)CC1
> 100 µM: OVCAR-5 ovarian | UO-31 renal | M14 melanoma | SR leukemia | HOP-62 NSCLC | ACHN renal | HCT-116 colon | SN12C renal | SF-268 CNS | U251 CNS | HCC-2998 colon | HCT-15 colon

CN1CCOC(C(NC(=O)c2ccccc2)c2ccccc2)C1=O (configuration not stated)
> 100 µM: SF-539 CNS | OVCAR-5 ovarian | UO-31 renal | M14 melanoma | SR leukemia | HOP-62 NSCLC | ACHN renal | HCT-116 colon | SN12C renal | SF-268 CNS | U251 CNS | HCC-2998 colon | HCT-15 colon

COC(=O)C1CCC(=O)N1CN(C(C)=O)c1cccc(O)c1 (configuration not stated)
> 100 µM: SF-539 CNS | OVCAR-5 ovarian | UO-31 renal | M14 melanoma | HS 578T breast | HOP-62 NSCLC | ACHN renal | HCT-116 colon | SN12C renal | SF-268 CNS | U251 CNS | HCT-15 colon
